Test results published in patent US20110110930A1, “Mitogen-Activated Protein Kinase Kinase Kinase 14 (MAP3K14) Polymorphisms As Indicators of Subject Outcome in Critically Ill Subjects” (priority 2007, published 2011).
Entries after “also recorded” stand apart in the source; their conditions may differ.

Test system: ICU subjects with severe sepsis
Test: Response to steroids in ICU severe sepsis subjects by MAP3K14 rs7222094 genotype (28-day survival, days alive and free of organ dysfunction)
Assay type: in vivo, human
Details: for SURV (28-Day Survival): % (N survived); for Delta SURV (28-Day Survival): treat (steroid-treated) minus cont (steroid untreated controls), difference of % survival; for Delta COAG.DAF (Days alive and free of coagulation dysfunction) / Delta CVS.DAF (Days alive and free of cardiovascular dysfunction) / Delta DA (Days alive) / Delta INR.DAF (Days alive and free of international normalized ratio >1.5) / Delta LIVER.DAF (Days alive and free of any type of hepatic dysfunction) / Delta PRESS.DAF (Days alive and free of any vasopressors) / Delta RENAL.DAF (Days alive and free of any type of renal dysfunction) / Delta RENSUP.DAF (Days alive and free of renal support) / Delta RESP.DAF (Days alive and free of respiratory dysfunction) / Delta VENT.DAF (Days alive and free of mechanical ventilators): treat minus cont (steroid untreated controls), difference of medians
Procedure: All subjects admitted to the ICU of St. Paul's Hospital (SPH) were screened for study inclusion. SPH ICU is a mixed medical-surgical ICU in a tertiary care, university-affiliated teaching hospital. Subjects were included in the study if they met at least two out of four SIRS criteria: 1) fever (>38° C.) or hypothermia (<36° C.), 2) tachycardia (>90 beats/minute), 3) tachypnea (>20 breaths/minute), PaCO2<32 mm Hg, or need for mechanical ventilation, and 4) leukocytosis (total leukocyte count>12,000 mm^3) or leukopenia (<4,000 mm^3). Subjects were included in the analysis if they met the diagnostic criteria for septic shock (sepsis and cardiovascular dysfunction (as defined by Brussels scoring system) and one other organ dysfunction) on admission to the ICU. Subjects were excluded if blood could not be obtained for genotype analysis. Baseline characteristics (age, gender, admission APACHE II score (KNAUS W A. et al. Crit. Care Med. (1985) 13:818-829), together with medical vs. surgical diagnosis KNAUS W A. et al. Chest (1991) 100:1619-1636) were recorded on admission to the ICU. The full cohort meeting these criteria included 1072 Caucasian subjects and 153 Asian subjects.
The primary outcome variable evaluated in this study was 28-day mortality. Various organ dysfunctions were considered as secondary outcome variables. Baseline demographics recorded were age, gender, admission APACHE II score (KNAUS W A. et al. Crit. Care Med (1985) 13:818-829), and medical or surgical diagnosis on admission to the ICU (based on the APACHE III diagnostic codes) (KNAUS W A. et al. Chest (1991) 100:1619-1636) (TABLE 2B).
After meeting the inclusion criteria, data were recorded for each 24-hour period (8 am to 8 am) for 28-days after ICU admission or until hospital discharge to evaluate organ dysfunction, the intensity of SIRS (Systemic Inflammatory Response Syndrome) and sepsis. Raw clinical and laboratory variables were recorded using the worst or most abnormal variable for each 24-hour period with the exception of Glasgow Coma Score, for which the best possible score for each 24-hour period was recorded. Missing data on the date of admission was assigned a normal value and missing data after day one was substituted by carrying forward the value from the previous day. When data collection for each patient was complete, all patient identifiers were removed from all records and the patient file was assigned a unique random number linked with the blood samples. The completed raw data file was used to calculate descriptive and severity of illness scores using standard definitions as described below.
Organ dysfunction was first evaluated at baseline and then daily using the Brussels score (SIBBALD W J. and VINCENT J L. Chest (1995) 107(2):522-7) (see TABLE 2A in General Methods Section). If the Brussels score was moderate, severe, or extreme dysfunction then organ dysfunction was recorded as present on that day. To correct for deaths during the observation period, we calculated the days alive and free of organ dysfunction (RUSSELL J A. et al. Crit. Care Med (2000) 28(10):3405-11 and BERNARD G R. et al. Chest (1997) 112(1):164-72) (TABLE 2C). For example, the severity of cardiovascular dysfunction was assessed by measuring days alive and free of cardiovascular dysfunction over a 28-day observation period. Days alive and free of cardiovascular dysfunction was calculated as the number of days after inclusion that a patient was alive and free of cardiovascular dysfunction over 28-days. Thus, a lower score for days alive and free of cardiovascular dysfunction indicates more cardiovascular dysfunction. The reason that days alive and free of cardiovascular dysfunction is preferable to simply presence or absence of cardiovascular dysfunction is that severe sepsis has a high acute mortality so that early death (within 28-days) precludes calculation of the presence or absence of cardiovascular dysfunction in dead subjects. […]

[1] = steroid-treated, rs7222094 TT (N = 74), Table 4.3 25th percentile/median/75th percentile, Table 4.5 median

Substance: hydrocortisone [steroids]
- worse survival of steroid-treated than untreated subjects (rs7222094 CC subjects, p=0.02023, Pearson's Chi-square): 15%
- 28-day survival and organ dysfunction compared to controls (in words) (steroid-treated subjects with rs7222094 CC): lower 28-day survival and more organ dysfunction than controls; also recorded: decreases 28-day survival
- 28-day survival and organ function compared to controls (in words) (steroid-treated subjects with rs7222094 TT): increased survival and improved organ function; also recorded: improved compared with controls
- SURV (28-Day Survival) (steroid-treated, genotypes Combined (N = 355)): 57% (203)
- SURV (28-Day Survival) (steroid-treated, rs7222094 CC (N = 122)): 45% (55)
- RENAL.DAF (Days alive and free of any type of renal dysfunction) (steroid-treated, rs7222094 CC (N = 122), Table 4.3 25th percentile/median/75th percentile, Table 4.5 median): 0 days
- SURV (28-Day Survival) (steroid-treated, rs7222094 TC (N = 159)): 59% (94)
- DA (Days alive) [1]: 28 days
- INR.DAF (Days alive and free of international normalized ratio >1.5) [1]: 27 days
- LIVER.DAF (Days alive and free of any type of hepatic dysfunction) [1]: 28 days
- Delta SURV (28-Day Survival) (rs7222094 CC): −15.0
- Delta SURV (28-Day Survival) (rs7222094 TC): −7.0
- Delta SURV (28-Day Survival) (rs7222094 TT): 3.0
- Delta COAG.DAF (Days alive and free of coagulation dysfunction) (rs7222094 CC): -11.5 days
- Delta CVS.DAF (Days alive and free of cardiovascular dysfunction) (rs7222094 CC): -1.0 days
- Delta DA (Days alive) (rs7222094 CC): -5.0 days
- Delta INR.DAF (Days alive and free of international normalized ratio >1.5) (rs7222094 CC): -6.0 days
- Delta LIVER.DAF (Days alive and free of any type of hepatic dysfunction) (rs7222094 CC): -6.5 days
- Delta PRESS.DAF (Days alive and free of any vasopressors) (rs7222094 CC): -11.0 days
- Delta RENAL.DAF (Days alive and free of any type of renal dysfunction) (rs7222094 CC): -4.0 days
- Delta RENSUP.DAF (Days alive and free of renal support) (rs7222094 CC): -9.0 days
- Delta RESP.DAF (Days alive and free of respiratory dysfunction) (rs7222094 CC): -12.0 days
- Delta VENT.DAF (Days alive and free of mechanical ventilators) (rs7222094 CC): -11.0 days
- Delta COAG.DAF (Days alive and free of coagulation dysfunction) (rs7222094 TC): -3.0 days
- Delta CVS.DAF (Days alive and free of cardiovascular dysfunction) (rs7222094 TC): -0.5 days
- Delta DA (Days alive) (rs7222094 TC): 0.0 days
- Delta INR.DAF (Days alive and free of international normalized ratio >1.5) (rs7222094 TC): -1.0 days
- Delta LIVER.DAF (Days alive and free of any type of hepatic dysfunction) (rs7222094 TC): 0.0 days
- Delta PRESS.DAF (Days alive and free of any vasopressors) (rs7222094 TC): -7.0 days
- Delta RENAL.DAF (Days alive and free of any type of renal dysfunction) (rs7222094 TC): -9.5 days
- Delta RENSUP.DAF (Days alive and free of renal support) (rs7222094 TC): -9.0 days
- Delta RESP.DAF (Days alive and free of respiratory dysfunction) (rs7222094 TC): -7.0 days
- Delta VENT.DAF (Days alive and free of mechanical ventilators) (rs7222094 TC): -11.0 days
- Delta COAG.DAF (Days alive and free of coagulation dysfunction) (rs7222094 TT): -0.5 days
- Delta CVS.DAF (Days alive and free of cardiovascular dysfunction) (rs7222094 TT): 1.0 days
- Delta DA (Days alive) (rs7222094 TT): 0.0 days
- Delta INR.DAF (Days alive and free of international normalized ratio >1.5) (rs7222094 TT): 0.0 days
- Delta LIVER.DAF (Days alive and free of any type of hepatic dysfunction) (rs7222094 TT): 0.0 days
- Delta PRESS.DAF (Days alive and free of any vasopressors) (rs7222094 TT): -2.0 days
- Delta RENAL.DAF (Days alive and free of any type of renal dysfunction) (rs7222094 TT): -5.5 days
- Delta RENSUP.DAF (Days alive and free of renal support) (rs7222094 TT): 0.0 days
- Delta RESP.DAF (Days alive and free of respiratory dysfunction) (rs7222094 TT): -2.0 days
- Delta VENT.DAF (Days alive and free of mechanical ventilators) (rs7222094 TT): -2.0 days
